# According to ChEMBL document CHEMBL3217434, “Matrix-based multiparameter optimisation of glucokinase activators: the discovery of AZD1092” (Medchemcomm, 2011):
# What was measured:
# [1] = Clearance in rat; assay type: ADME, organism-based; settings: in vivo
# [2] = Oral bioavailability in rat; assay type: ADME, organism-based; settings: in vivo
# [3] = Volume of distribution at steady state in dog; assay type: ADME, organism-based, Canis lupus familiaris; settings: in vivo, read-out: Vdss
# [4] = Volume of distribution at steady state in rat; assay type: ADME, organism-based; settings: in vivo, read-out: Vdss
# [5] = Clearance in dog; assay type: ADME, organism-based, Canis lupus familiaris; settings: in vivo
# Rattus norvegicus [6] = assay: Antidiabetic activity in high fat fed Zucker rat assessed as reduction of AUC of plasma glucose level at 3 mg/kg by oral glucose tolerance test; assay type: functional; set-up: scale not given: the % may be the effect or the level left
# [7] = Oral bioavailability in dog; assay type: ADME, organism-based, Canis lupus familiaris; settings: in vivo
# [8] = Apparent permeability from apical to basolateral side of human Caco2 cells; assay type: ADME, cell-based; settings: Caco-2
# [9] = target: Voltage-gated inwardly rectifying potassium channel KCNH2 (Homo sapiens, UniProt Q12809); assay: Inhibition of human ERG
# Chain of Voltage-gated inwardly rectifying potassium channel KCNH2 (Q12809 whole entry): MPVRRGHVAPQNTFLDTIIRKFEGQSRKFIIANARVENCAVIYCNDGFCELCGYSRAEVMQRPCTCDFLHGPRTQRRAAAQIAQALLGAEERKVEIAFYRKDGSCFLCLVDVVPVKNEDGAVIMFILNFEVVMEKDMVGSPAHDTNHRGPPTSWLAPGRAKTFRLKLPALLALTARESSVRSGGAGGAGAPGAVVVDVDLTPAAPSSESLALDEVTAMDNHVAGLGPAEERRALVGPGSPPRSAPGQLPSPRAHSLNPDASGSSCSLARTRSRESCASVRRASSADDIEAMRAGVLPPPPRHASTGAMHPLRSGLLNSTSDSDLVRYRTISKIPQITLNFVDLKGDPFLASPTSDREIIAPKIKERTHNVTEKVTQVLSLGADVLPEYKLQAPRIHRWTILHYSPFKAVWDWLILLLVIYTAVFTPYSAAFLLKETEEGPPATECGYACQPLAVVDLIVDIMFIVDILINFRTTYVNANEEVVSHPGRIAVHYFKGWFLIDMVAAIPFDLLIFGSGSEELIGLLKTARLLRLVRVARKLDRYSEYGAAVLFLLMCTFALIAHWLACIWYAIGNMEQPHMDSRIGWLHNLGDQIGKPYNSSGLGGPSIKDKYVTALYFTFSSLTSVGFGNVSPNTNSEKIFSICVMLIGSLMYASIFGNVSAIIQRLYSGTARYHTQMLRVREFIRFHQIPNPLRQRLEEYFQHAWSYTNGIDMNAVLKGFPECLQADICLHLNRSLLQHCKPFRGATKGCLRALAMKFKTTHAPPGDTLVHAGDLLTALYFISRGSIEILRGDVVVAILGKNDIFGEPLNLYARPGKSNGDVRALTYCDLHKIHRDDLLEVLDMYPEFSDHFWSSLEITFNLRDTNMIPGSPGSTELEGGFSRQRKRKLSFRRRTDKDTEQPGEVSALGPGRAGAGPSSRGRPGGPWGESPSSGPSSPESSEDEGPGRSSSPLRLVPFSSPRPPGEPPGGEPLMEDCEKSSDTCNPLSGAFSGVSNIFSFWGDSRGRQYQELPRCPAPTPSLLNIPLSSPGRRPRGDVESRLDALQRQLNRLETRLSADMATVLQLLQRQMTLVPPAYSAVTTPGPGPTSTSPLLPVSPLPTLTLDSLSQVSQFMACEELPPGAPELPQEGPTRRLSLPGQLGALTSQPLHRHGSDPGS
# [10] = Solubility of the compound; assay type: physicochemical
# [11] = Lipophilicity, log D of the compound; assay type: physicochemical; settings: octanol/water
# Hexokinase-4 = target: T1, Hexokinase-4 (Homo sapiens, UniProt P35557); assay: Activation of glucokinase (unknown origin)
# T1 sequence (P35557 whole entry): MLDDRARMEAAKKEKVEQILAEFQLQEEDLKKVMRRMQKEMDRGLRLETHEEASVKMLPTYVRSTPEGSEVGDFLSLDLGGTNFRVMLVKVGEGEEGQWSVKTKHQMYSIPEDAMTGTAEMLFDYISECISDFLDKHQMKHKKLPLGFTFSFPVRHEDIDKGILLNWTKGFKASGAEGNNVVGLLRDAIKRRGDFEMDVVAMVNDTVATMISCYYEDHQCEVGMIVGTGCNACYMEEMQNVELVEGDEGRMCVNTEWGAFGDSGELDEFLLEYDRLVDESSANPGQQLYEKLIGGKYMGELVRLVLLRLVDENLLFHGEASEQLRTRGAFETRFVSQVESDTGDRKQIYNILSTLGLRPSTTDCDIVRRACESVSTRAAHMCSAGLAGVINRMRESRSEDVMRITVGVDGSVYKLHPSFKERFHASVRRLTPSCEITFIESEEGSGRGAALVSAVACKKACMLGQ
# Rattus norvegicus [12] = assay: Antidiabetic activity in high fat fed Zucker rat assessed as reduction of AUC of plasma glucose level at 10 mg/kg by oral glucose tolerance test; assay type: functional; set-up: scale not given: the % may be the effect or the level left
SMILES,clearance [1] [mL/min/kg],bioavailability [2] [%],Vd [3] [L/kg],Vd [4] [L/kg],clearance [5] [mL/min/kg],Activity (Rattus norvegicus [6]) [%],bioavailability [7] [%],Papp A→B [8] [×10⁻⁶ cm/s],IC50 [9] [nM],solubility [10] [µM],logD [11],EC50 (Hexokinase-4) [nM],Activity (Rattus norvegicus [12]) [%]
COC[C@H](C)Oc1cc(Oc2ccc(S(C)(=O)=O)cc2)cc(C(=O)Nc2nc(C)ns2)c1,5.6,71,0.3,0.2,0.5,27,56,,,,,,
C[C@@H](CO)Oc1cc(Oc2ccc(C(=O)N(C)C)cc2)cc(C(=O)Nc2ccn(C)n2)c1,31,78,,1.9,,,,1.7,> 100000,> 1000,1.7,40,
C[C@@H](CO)Oc1cc(Oc2ccc(C(=O)N3CCC3)cc2)cc(C(=O)Nc2ccn(C)n2)c1,14,30,1.3,1.8,14,24,51,1.8,70000,350,1.8,30,
COC[C@H](C)Oc1cc(Oc2ccc(S(C)(=O)=O)cc2)cc(C(=O)Nc2nccs2)c1,11,28,0.8,0.3,7.2,,11,,,,,,29
COC[C@H](C)Oc1cc(Oc2ccc(C(=O)N(C)C)cc2)cc(C(=O)Nc2cc[nH]n2)c1,34,27,,1.1,,,,2.3,> 95000,730,1.8,50,
